We go through four molecules from US20020164348A1 (priority 2000, published 2002).

One series has as its target poliovirus polymerase (Poliovirus type 1, UniProt P03300).
Another series deals with rhinovirus polymerase (Human rhinovirus 14, UniProt P03303). Type of series: biochemical.
For series [1], the target named is T1, pJG-poliovirus 3D prey fusion (pJGPolio3D) (poliovirus Mahoney type 1, UniProt P03300 1749-2209).
T1 sequence: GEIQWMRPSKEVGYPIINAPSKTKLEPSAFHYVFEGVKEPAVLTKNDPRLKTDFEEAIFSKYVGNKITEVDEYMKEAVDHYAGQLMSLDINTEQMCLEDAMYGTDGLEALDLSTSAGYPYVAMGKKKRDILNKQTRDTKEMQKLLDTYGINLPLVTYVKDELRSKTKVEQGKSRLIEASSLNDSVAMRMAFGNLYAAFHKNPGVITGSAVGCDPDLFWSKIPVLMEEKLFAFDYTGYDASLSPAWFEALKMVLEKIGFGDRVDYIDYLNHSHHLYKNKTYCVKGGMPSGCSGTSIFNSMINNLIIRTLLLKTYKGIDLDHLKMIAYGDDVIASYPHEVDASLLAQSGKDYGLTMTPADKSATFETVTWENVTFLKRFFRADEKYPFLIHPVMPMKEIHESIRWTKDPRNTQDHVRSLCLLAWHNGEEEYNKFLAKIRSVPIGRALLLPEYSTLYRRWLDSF
Briefly: yeast two-hybrid, colour on X-gal plates (- white); bait in row, prey in column.

Series [2] addresses poliovirus RNA-dependent RNA polymerase 3Dpol WT (Poliovirus type 1 (Mahoney), UniProt P03300 P03300:1749-2209). The experiment in a line: filter. The following applies: tags: none stated, expressed in E. coli BL21(DE3) pLysS, N-terminal Met removed; label: 32P (alpha-32P CTP, T7 transcript); 20 bp blunt self-complementary duplex.

rhinovirus polymerase, sequence (P03303 1720-2179 limits assumed): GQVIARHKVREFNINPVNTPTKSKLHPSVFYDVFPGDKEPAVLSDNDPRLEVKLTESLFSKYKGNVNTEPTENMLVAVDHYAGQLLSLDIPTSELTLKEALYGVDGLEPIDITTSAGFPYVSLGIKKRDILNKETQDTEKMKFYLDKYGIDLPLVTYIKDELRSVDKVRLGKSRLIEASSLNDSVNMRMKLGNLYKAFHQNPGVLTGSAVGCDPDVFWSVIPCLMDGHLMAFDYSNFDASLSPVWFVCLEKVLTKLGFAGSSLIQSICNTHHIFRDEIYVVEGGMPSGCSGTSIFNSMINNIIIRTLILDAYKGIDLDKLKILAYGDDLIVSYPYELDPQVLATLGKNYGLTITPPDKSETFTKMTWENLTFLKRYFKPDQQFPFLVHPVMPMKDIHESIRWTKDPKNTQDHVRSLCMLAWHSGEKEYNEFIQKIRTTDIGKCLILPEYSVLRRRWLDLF

Take `[Cl-].[Cl-].[Zn+2]` [ZnCl2]: the “effect on decrease in specific activity with decreasing polymerase concentration” value on poliovirus polymerase was “nearly eliminates the decrease in specific activity”.
With “KPHKCTFEGCRKSYSRSTNLRRHLNSH (SEQ ID NO:5) [Peptide 1]”, at rhinovirus polymerase, the “activity of the rhinovirus polymerase” value is given as “inhibits”.

B1: Lex202 vector control (bait vector without a polymerase) (other)
chain: MKALTARQQEVFDLIRDHISQTGMPPTRAEIAQRLGFRSPNAAEEHLKALARKGVIEIVSGASRGIRLLQEEEEGLPLVGRVAAGEPLLAQQHIEGHYQVDPSLFKPNADFLLRVSGMSMKDIGIMDGDLLAVHKTQDVRNGQVVVARIDDEVTVKRLKKQGNKVELLPENSEFKPIVVDLRQQSFTIEGLAVGVIRNGDWL
Consider B1, for which the binding result in series [1] is “no binding”.

B2: 0.20 RNA (dsRNA)
RNA 1: GGCAGCUGCAUGCAGCUGCC
RNA 2: GGCAGCUGCAUGCAGCUGCC
Take B2: the binding result in series [2] is reported as “binds”.
